The source of these data is patent US11266643B2, “Triaryl compounds for treatment of PD-L1 diseases” (CHEMOCENTRYX, INC., priority 2019, dated 2022).

A word on the IC50: it is the point on the concentration scale where inhibition reaches its midpoint. Low values mean inhibition by little substance, high ones a need for much substance.

Sequence of human PD-L1 (Q9NZQ7 19-239): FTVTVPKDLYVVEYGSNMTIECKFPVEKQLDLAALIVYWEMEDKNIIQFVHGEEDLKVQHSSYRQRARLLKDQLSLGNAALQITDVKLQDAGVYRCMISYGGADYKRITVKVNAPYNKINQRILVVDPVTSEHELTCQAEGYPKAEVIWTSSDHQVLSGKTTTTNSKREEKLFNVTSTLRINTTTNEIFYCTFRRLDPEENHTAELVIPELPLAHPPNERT

For the first assay, the target named is human PD-L1 (Homo sapiens (Human), UniProt Q9NZQ7). The experiment in a line: Enzyme-Linked Immunosorbent Assay (ELISA), PD-1/PD-L1 binding. The settings on record: PD-1/PD-L1 ELISA, human PD-L1 coated plates, Table 1. The gist of the method:
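Competitive ELISA: human PD-1 […] (0.31 μg/mL) and serially diluted compounds (1:5) incubated 1 h at 37° C on wells coated with […] human PD-L1. Signal via streptavidin-HRP/TMB, stopped with 2 N H2SO4, measured as A450.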
On to `COc1cc(-c2cccc(-c3cccc(NC(=O)c4cncn(C)c4=O)c3C)c2C)cc(F)c1CNC1CCCC1` [Example 1.198], for which the concentration for half-maximal inhibition (IC50) is under 10 nM.

As to `COc1cc(-c2cccc(-c3cccc(NC(=O)c4cncn(C)c4=O)c3C)c2C)cc(F)c1CN[C@@H]1CCC[C@@H]1O` [Example 1.199], the IC50 is under 10 nM.

As for `COc1cc(-c2cccc(-c3cccc(Nc4nccc5nccnc45)c3C)c2C)cc(F)c1CNC[C@@H]1CCC(=O)N1` [Example 1.200], the 50% inhibitory concentration (IC50) was under 10 nM.

For the molecule `COc1cc(-c2cccc(-c3cccc(NC(=O)c4c[nH]c(=O)n(C)c4=O)c3C)c2C)cc(F)c1CNC[C@@H]1CCC(=O)N1` [Example 1.201], the IC50 was under 10 nM.

Take `COc1cc(-c2cccc(-c3cccc(NC(=O)c4cncn(C)c4=O)c3C)c2C)cc(F)c1CNC1CCC1` [Example 1.202]: the 50% inhibitory concentration (IC50) was under 10 nM.

`COc1cc(-c2cccc(-c3cccc(NC(=O)c4cncn(C)c4=O)c3C)c2C)cc(F)c1CNC[C@@H](C)O` [Example 1.203]: the IC50 is under 10 nM.

In the case of `COc1cc(-c2cccc(-c3cccc(NC(=O)c4cncn(C)c4=O)c3C)c2C)cc(F)c1CN[C@H](C)CO` [Example 1.204], the IC50 was under 10 nM.

The molecule `COc1cc(-c2cccc(-c3cccc(NC(=O)c4cncn(C)c4=O)c3C)c2C)cc(F)c1CNCC(C)(C)O` [Example 1.205] returned an IC50 of under 10 nM.

As for `COc1cc(-c2cccc(-c3cccc(Nc4nccc5nccnc45)c3C)c2C)cc(F)c1CN[C@@H]1CNC(=O)C1` [Example 1.206], the 50% inhibitory concentration (IC50) was under 10 nM.

`COc1cc(-c2cccc(-c3cccc(Nc4nccc5nccnc45)c3C)c2C)cc(F)c1CN[C@H](C)CO` [Example 1.207] returned a half-maximal inhibitory concentration (IC50) of under 10 nM.

Still in this assay, the particulars now being: human PD-1/PD-L1 ELISA, plates coated with human PD-L1.
As for `COc1cc(-c2cccc(-c3cccc(NC(=O)c4cccn(C)c4=O)c3C)c2C)cc(F)c1CN[C@@H]1CCC[C@@H]1O` [Example 1.165], the 50% inhibitory concentration (IC50) was under 10 nM.

In the case of `COc1cc(-c2cccc(-c3cccc(NC(=O)c4cncn(C)c4=O)c3C)c2C)cc(F)c1CN(C)CC(C)(C)O` [Example 1.166], the IC50 is 10 to 1000 nM.

For `COc1cc(-c2cccc(-c3cccc(NC(=O)c4cccn(C)c4=O)c3C)c2C)cc(F)c1CN(C)C[C@@H]1CCC(=O)N1` [Example 1.167], the IC50 was under 10 nM.

Turning to `COc1cc(-c2cccc(-c3cccc(NC(=O)c4cccn(C)c4=O)c3C)c2C)cc(F)c1CNC1CCOC1` (stereo not drawn) [Example 1.168], the IC50 is under 10 nM.

In turn, `COc1cc(-c2cccc(-c3cccc(NC(=O)c4cccn(C)c4=O)c3C)c2C)cc(F)c1CNC1COC1` [Example 1.169] displayed an IC50 of 10 to 1000 nM.

`COc1cc(-c2cccc(-c3cccc(NC(=O)c4cccn(C)c4=O)c3C)c2C)cc(F)c1CNC(C)C` [Example 1.170] had an IC50 of under 10 nM.

Turning to `COc1cc(-c2cccc(-c3cccc(NC(=O)c4cccn(C)c4=O)c3C)c2C)cc(F)c1CN[C@@H]1CNC(=O)C1` [Example 1.171], the IC50 was under 10 nM.

`COc1cc(-c2cccc(-c3cccc(NC(=O)c4cncn(C)c4=O)c3C)c2C)cc(F)c1CN[C@H]1CCC[C@@H]1O` [Example 1.172] gave a half-inhibitory concentration (IC50) of under 10 nM.

The molecule `COc1cc(-c2cccc(-c3cccc(Nc4nccc5c4NCCN5)c3C)c2C)cc(F)c1CN[C@@H]1CCC[C@@H]1O` [Example 1.173] showed a half-maximal inhibitory concentration (IC50) of 10 to 1000 nM.

Molecule `COc1cc(-c2cccc(-c3cccc(NC(=O)c4cn(C)c(=O)n(C)c4=O)c3C)c2C)cc(F)c1CN(C)C[C@@H]1CCC(=O)N1` [Example 1.175] showed a half-maximal inhibitory concentration (IC50) of under 10 nM.

The molecule `COc1cc(-c2cccc(-c3cccc(NC(=O)c4cncn(C)c4=O)c3C)c2C)cc(F)c1CN(C)CCO` [Example 1.176] had an IC50 of under 10 nM.

With `COc1cc(-c2cccc(-c3cccc(NC(=O)c4cn(C)c(=O)n(C)c4=O)c3C)c2C)cc(F)c1CNC1COC1` [Example 1.177], the 50% inhibitory concentration (IC50) was under 10 nM.

`COc1cc(-c2cccc(-c3cccc(NC(=O)c4cn(C)c(=O)n(C)c4=O)c3C)c2C)cc(F)c1CN[C@@H]1CCC[C@@H]1O` [Example 1.178] registered a 50% inhibitory concentration (IC50) of under 10 nM.

Molecule `COc1cc(-c2cccc(-c3cccc(NC(=O)c4cn(C)c(=O)n(C)c4=O)c3C)c2C)cc(F)c1CNCCO` [Example 1.179] registered an IC50 of under 10 nM.

Molecule `COc1cc(-c2cccc(-c3cccc(Nc4nccc5nccnc45)c3C)c2C)cc(F)c1CN[C@@H]1CCC[C@@H]1O` [Example 1.180] registered a half-inhibitory concentration (IC50) of under 10 nM.

`COc1cc(-c2cccc(-c3cccc(Nc4nccc5nccnc45)c3C)c2C)cc(F)c1CNC(C)C` [Example 1.181] gave an IC50 of under 10 nM.

`COc1cc(-c2cccc(-c3cccc(NC(=O)c4cncn(C)c4=O)c3C)c2C)cc(F)c1CN1CCNC(=O)C1` [Example 1.182]: the IC50 fell in the range of 1000 to 10000 nM.

In turn, `COc1cc(-c2cccc(-c3cccc(NC(=O)c4c[nH]c(=O)n(C)c4=O)c3C)c2C)cc(F)c1CN1CCNC(=O)C1` [Example 1.183] showed a concentration for half-maximal inhibition (IC50) of 1000 to 10000 nM.

For the molecule `COc1cc(-c2cccc(-c3cccc(Nc4nccc5c4C(=O)N(C)CC5)c3C)c2C)cc(F)c1CNC(C)C` [Example 1.184], the concentration for half-maximal inhibition (IC50) was in the range of 10 to 1000 nM.

`COc1cc(-c2cccc(-c3cccc(Nc4nccc5c4C(=O)N(C)CC5)c3C)c2C)cc(F)c1CNC[C@@H](C)O` [Example 1.185] registered an IC50 of 10 to 1000 nM.

`COc1cc(-c2cccc(-c3cccc(NC(=O)c4cncn(C)c4=O)c3C)c2C)cc(F)c1CNC[C@H]1CCC(=O)N1` [Example 1.186] returned a concentration for half-maximal inhibition (IC50) of under 10 nM.

`COc1cc(-c2cccc(-c3cccc(NC(=O)c4cn(C)c(=O)n(C)c4=O)c3C)c2C)cc(F)c1CNC[C@@H]1CCC(=O)N1` [Example 1.187] came in with an IC50 of under 10 nM.

Molecule `COc1cc(-c2cccc(-c3cccc(NC(=O)c4cn(C)c(=O)n(C)c4=O)c3C)c2C)cc(F)c1CN[C@@H]1CNC(=O)C1` [Example 1.188] returned a 50% inhibitory concentration (IC50) of under 10 nM.

Molecule `COc1cc(-c2cccc(-c3cccc(NC(=O)c4cncn(C)c4=O)c3C)c2C)cc(F)c1CN(C)C[C@@H]1CCC(=O)N1C` [Example 1.189] registered a concentration for half-maximal inhibition (IC50) of 10 to 1000 nM.

As to `CC[C@@H](O)NCc1c(F)cc(-c2cccc(-c3cccc(Nc4nccc5c4C(=O)N(C)CC5)c3C)c2C)cc1OC` [Example 1.190], the IC50 was under 10 nM.

For the molecule `COc1cc(-c2cccc(-c3cccc(Nc4nccc5c4C(=O)N(C)CC5)c3C)c2C)cc(F)c1CN[C@@H]1CCC[C@@H]1O` [Example 1.191], the IC50 is under 10 nM.

In turn, `COc1cc(-c2cccc(-c3cccc(Nc4nccc5c4C(=O)N(C)CC5)c3C)c2C)cc(F)c1CN(C)C[C@@H]1CCC(=O)N1` [Example 1.192] showed an IC50 of 10 to 1000 nM.

`COc1cc(-c2cccc(-c3cccc(Nc4nccc5c4C(=O)N(C)CC5)c3C)c2C)cc(F)c1CNC[C@@H]1CCC(=O)N1` [Example 1.193] had a half-maximal inhibitory concentration (IC50) of under 10 nM.

For the molecule `COc1cc(-c2cccc(-c3cccc(NC(=O)C4=CNCN(C)C4=O)c3C)c2C)cc(F)c1CNC[C@@H]1CCC(=O)N1C` [Example 1.194], the IC50 was 10 to 1000 nM.

Take `COc1cc(-c2cccc(-c3cccc(NC(=O)c4cncn(C)c4=O)c3C)c2C)cc(F)c1CNC[C@@H]1CCC(=O)N1C` [Example 1.195]: the IC50 was under 10 nM.

On to `COc1cc(-c2cccc(-c3cccc(Nc4nccc5c4C(=O)N(C)CC5)c3C)c2C)cc(F)c1CN[C@@H]1CNC(=O)C1` [Example 1.196], for which the IC50 is 10 to 1000 nM.

In turn, `COc1cc(-c2cccc(-c3cccc(NC(=O)c4cncn(C)c4=O)c3C)c2C)cc(F)c1CNC1COC1` [Example 1.197] returned a half-maximal inhibitory concentration (IC50) of under 10 nM.
